Consider 31 molecules from patent US11001590B2, “Pyrazolopyrimidine derivatives” (BAYER ANIMAL HEALTH GMBH, priority 2016, dated 2021).

SMILES strings stand for the structures.

For data set [1], the system named is Dirofilaria immitis microfilariae. The experiment in a line: In vitro assay 3: Dirofilaria immitis microfilariae (DIROIM L1), motility. The following applies: 72 h, reduction of motility vs negative control, 72 h incubation.
In another data set the target is C. elegans Slo-1a (Caenorhabditis elegans, UniProt Q95V25). The data set is described as follows: In vitro assay 1: C. elegans Slo-1a, action at a recombinant C. elegans CHO cell line (membrane potential measurement).
Data set [2] concerns Dirofilaria immitis third-stage larvae. The data set is described as follows: In vitro assay 4: Dirofilaria immitis (DIROIM L4), motility of larvae. The following applies: 72 h.
A short description of data set [3]: log P by HPLC on reversed phase columns (Method L0; [a] acidic, [b] neutral range).
Method: Calibration was done with straight-chain alkan-2-ones (with 3 to 16 carbon atoms) with known log P values (measurement of log P values using retention times with linear interpolation between successive alkanones). Lambda-max-values were determined using UV-spectra from 200 nm to 400 nm and the peak values of the chromatographic signals.
Data set [4] has as its system Litomosoides sigmodontis third-stage larvae. The experiment in a line: In vitro assay 7: Litomosoides sigmodontis L3 (LTMOSI), motility. The following applies: 72 h, reduction of motility vs negative control, 72 h incubation.

C. elegans Slo-1a, sequence (Q95V25 whole entry): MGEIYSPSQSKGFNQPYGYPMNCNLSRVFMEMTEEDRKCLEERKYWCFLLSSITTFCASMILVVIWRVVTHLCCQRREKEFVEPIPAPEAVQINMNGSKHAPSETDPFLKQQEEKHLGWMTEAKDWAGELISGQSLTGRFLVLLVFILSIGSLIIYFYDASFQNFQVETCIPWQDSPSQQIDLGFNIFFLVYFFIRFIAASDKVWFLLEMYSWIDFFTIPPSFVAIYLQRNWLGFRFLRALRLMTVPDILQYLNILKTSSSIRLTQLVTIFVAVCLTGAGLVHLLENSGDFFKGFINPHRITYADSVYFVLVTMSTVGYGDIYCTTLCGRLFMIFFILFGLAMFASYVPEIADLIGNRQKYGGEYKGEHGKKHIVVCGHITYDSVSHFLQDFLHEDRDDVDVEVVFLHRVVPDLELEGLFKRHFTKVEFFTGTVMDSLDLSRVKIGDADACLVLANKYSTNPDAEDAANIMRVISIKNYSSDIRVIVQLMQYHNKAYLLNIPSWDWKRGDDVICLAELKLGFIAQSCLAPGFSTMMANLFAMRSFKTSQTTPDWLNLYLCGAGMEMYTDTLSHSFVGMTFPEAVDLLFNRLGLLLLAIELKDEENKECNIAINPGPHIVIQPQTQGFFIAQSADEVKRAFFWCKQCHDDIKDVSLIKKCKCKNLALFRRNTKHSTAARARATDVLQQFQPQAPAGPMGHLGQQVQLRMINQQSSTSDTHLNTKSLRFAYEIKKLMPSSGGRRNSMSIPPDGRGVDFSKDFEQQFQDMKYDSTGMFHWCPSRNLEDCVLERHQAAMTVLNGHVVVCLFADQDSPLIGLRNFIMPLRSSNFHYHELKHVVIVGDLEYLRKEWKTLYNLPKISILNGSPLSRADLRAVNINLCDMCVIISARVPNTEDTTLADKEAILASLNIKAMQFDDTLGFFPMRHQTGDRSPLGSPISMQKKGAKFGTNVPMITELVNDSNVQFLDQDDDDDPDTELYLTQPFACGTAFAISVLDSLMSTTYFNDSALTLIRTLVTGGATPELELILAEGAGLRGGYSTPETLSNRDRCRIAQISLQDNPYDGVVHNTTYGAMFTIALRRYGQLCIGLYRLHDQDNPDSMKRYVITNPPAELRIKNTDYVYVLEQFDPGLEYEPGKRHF

In the case of `Cc1nn2c(C3CC3)c(C(=O)N[C@H]3CCOc4ccccc43)cnc2c1-c1c(F)cccc1Cl` [Example 458], the EC50 (as a rule, the concentration needed to bring the measured effect to its halfway point) was less than 0.1 µg/mL in data set [1], 1.58 nM on C. elegans Slo-1a, less than 0.1 µg/mL in data set [2] and less than 0.1 µg/mL in data set [4]. The chromatographic logP (as a rule, lipophilicity estimated from chromatographic retention) in data set [3] is 3.65.

Take `Cc1nn2c(C(C)C)c(C(=O)N[C@H]3CCOc4ccccc43)cnc2c1-c1cc(F)ccc1F` [Example 121]: the 50% effective concentration (EC50) in data set [1] was less than 0.1 µg/mL; at C. elegans Slo-1a it was 6.31 nM; in data set [2], less than 0.1 µg/mL; in data set [4], less than 0.1 µg/mL. In addition, the chromatographic logP in data set [3] came out at 4.41.

For the molecule `Cc1nn2c(C(C)C)c(C(=O)N[C@H]3CCOc4ccccc43)cnc2c1-c1ccccc1F` [Example 92], the EC50 in data set [1] was less than 0.1 µg/mL; at C. elegans Slo-1a, 6.31 nM; in data set [2], less than 0.1 µg/mL; in data set [4], less than 0.1 µg/mL. In data set [3], this molecule had a chromatographic logP of 4.18.

For the molecule `Cc1nn2c(C(C)C)c(C(=O)N[C@H]3CCc4ccccc43)cnc2c1-c1cccc(OC(F)F)c1` [Example 337], the EC50 in data set [1] is less than 0.1 µg/mL; on C. elegans Slo-1a it was 12.6 nM; in data set [2], less than 1 µg/mL; in data set [4] it was less than 0.1 µg/mL. The molecule further came in with a chromatographic logP in data set [3] of 4.7.

For the molecule `Cc1nn2c(C(C)C)c(C(=O)N[C@H]3CCOc4ccccc43)cnc2c1-c1cc(Cl)ccc1Cl` [Example 173], the EC50 in data set [1] was less than 0.1 µg/mL; at C. elegans Slo-1a, 3.98 nM; in data set [2], less than 0.1 µg/mL; in data set [4] it was less than 0.1 µg/mL. The same molecule showed a chromatographic logP in data set [3] of 5.

Turning to `Cc1nn2c(N3CCOCC3)c(C(=O)N[C@H]3CCOc4ccccc43)cnc2c1-c1cccc(F)c1F` [Example 534], the EC50 was less than 0.1 µg/mL in data set [1], 3.16 nM on C. elegans Slo-1a, less than 0.1 µg/mL in data set [2] and less than 0.1 µg/mL in data set [4]. In addition, the chromatographic logP in data set [3] was 4.32.

As to `Cc1ccccc1-c1c(C)nn2c(C(C)C)c(C(=O)N[C@H]3CCOc4ccccc43)cnc12` [Example 193], the EC50 in data set [1] is less than 0.1 µg/mL; at C. elegans Slo-1a it was 0.794 nM; in data set [2], less than 0.1 µg/mL; in data set [4], less than 0.1 µg/mL. The same molecule displayed a chromatographic logP in data set [3] of 4.44.

In the case of `Cc1nn2c(C(C)C)c(C(=O)N[C@H]3CCc4ccccc43)cnc2c1-c1cccc2c1OC(F)(F)O2` [Example 147], the EC50 was less than 0.1 µg/mL in data set [1], 50.1 nM at C. elegans Slo-1a, less than 0.1 µg/mL in data set [2] and less than 0.1 µg/mL in data set [4]. The molecule also registered a chromatographic logP in data set [3] of 5.17.

Consider `Cc1nn2c(C(C)C)c(C(=O)N[C@H]3CCc4ccccc43)cnc2c1-c1ccc(F)c(F)c1` [Example 103], for which the EC50 in data set [1] was less than 0.1 µg/mL; on C. elegans Slo-1a it was 20 nM; in data set [2], less than 0.1 µg/mL; in data set [4], less than 0.1 µg/mL. The chromatographic logP in data set [3] stood at 4.82.

Consider `Cc1nn2c(C(C)C)c(C(=O)N[C@H]3CCOc4ccccc43)cnc2c1-c1ccc(F)c(F)c1` [Example 100], for which the EC50 was less than 0.1 µg/mL in data set [1], 7.94 nM on C. elegans Slo-1a, less than 0.1 µg/mL in data set [2] and less than 0.1 µg/mL in data set [4]. Besides, in data set [3], the chromatographic logP amounted to 4.56.

Take `Cc1nn2c(C(C)C)c(C(=O)N[C@H]3CCc4ccccc43)cnc2c1-c1ccccc1F` [Example 95]: the EC50 in data set [1] was less than 0.1 µg/mL; on C. elegans Slo-1a it was 6.31 nM; in data set [2], less than 0.1 µg/mL; in data set [4], less than 0.1 µg/mL. In addition, the chromatographic logP in data set [3] stood at 4.41.

Turning to `COCc1cccc(-c2c(C)nn3c(C(C)C)c(C(=O)N[C@H]4CCc5ccccc54)cnc23)c1` [Example 300], the EC50 was less than 1 µg/mL in data set [1], 6.31 nM at C. elegans Slo-1a, less than 0.1 µg/mL in data set [2] and less than 0.1 µg/mL in data set [4]. Also, the chromatographic logP in data set [3] was determined as 4.43.

For `CC(C)c1c(C(=O)N[C@H]2CCc3ccccc32)cnc2c(-c3ccccc3Cl)c(Cl)nn12` [Example 79], the EC50 was less than 0.1 µg/mL in data set [1], 20 nM at C. elegans Slo-1a, less than 0.1 µg/mL in data set [2] and less than 0.1 µg/mL in data set [4]. For the same molecule, the chromatographic logP in data set [3] was determined as 4.79.

As for `COc1cc(F)cc(-c2c(C)nn3c(C(C)C)c(C(=O)N[C@H]4CCc5ccccc54)cnc23)c1` [Example 325], the EC50 was less than 0.1 µg/mL in data set [1], 20 nM at C. elegans Slo-1a, less than 0.1 µg/mL in data set [2] and less than 0.1 µg/mL in data set [4]. Further, in data set [3], the chromatographic logP was determined as 4.8.

In the case of `Cc1nn2c(C(C)C)c(C(=O)N[C@H]3CCOc4ccccc43)cnc2c1-c1cncc(Cl)c1` [Example 402], the EC50 in data set [1] was less than 0.1 µg/mL; on C. elegans Slo-1a, 20 nM; in data set [2], less than 0.1 µg/mL; in data set [4], less than 0.1 µg/mL. Moreover, in data set [3], the chromatographic logP is 3.91.

`Cc1nn2c(C(C)C)c(C(=O)N[C@H]3CCc4ccccc43)cnc2c1-c1cccc(F)c1` [Example 290, (S)—N-(2,3-Dihydro-1H-inden-1-yl)-3-(3-fluorophenyl)-7-isopropyl-2-methylpyrazolo[1,5-a]pyrimidine-6-carboxamide]: the EC50 in data set [1] is less than 1 µg/mL; on C. elegans Slo-1a, 15.8 nM; in data set [4], less than 1 µg/mL. Moreover, in data set [3], the chromatographic logP was found to be 4.73.

In the case of `Cc1nn2c(C(C)C)c(C(=O)N[C@H]3CCOc4ccccc43)cnc2c1-c1ccccc1Cl` [Example 107], the EC50 in data set [1] is less than 0.1 µg/mL; on C. elegans Slo-1a, 5.01 nM; in data set [2] it was less than 0.1 µg/mL; in data set [4] it was less than 0.1 µg/mL. Further, in data set [3], the chromatographic logP was 4.37.

As to `Cc1nn2c(C(C)C)c(C(=O)N[C@H]3CCCc4ccccc43)cnc2c1-c1cccc(Cl)c1Cl` [Example 169], the EC50 in data set [1] was less than 0.1 µg/mL; on C. elegans Slo-1a it was 6.31 nM; in data set [2], less than 0.1 µg/mL; in data set [4], less than 0.1 µg/mL. In data set [3], this molecule registered a chromatographic logP of 5.46.

As for `Cc1nn2c(C3CC3)c(C(=O)N[C@H]3CCc4ccccc43)cnc2c1-c1cccc(Cl)c1` [Example 352], the EC50 in data set [1] was less than 0.1 µg/mL; at C. elegans Slo-1a, 6.31 nM; in data set [2] it was less than 0.1 µg/mL; in data set [4], less than 0.1 µg/mL. Further, the chromatographic logP in data set [3] stood at 4.38.

As to `Cc1nn2c(C(C)C)c(C(=O)N[C@H]3CCc4ccccc43)cnc2c1-c1cc(F)cc(F)c1` [Example 323], the EC50 in data set [1] was less than 0.1 µg/mL; on C. elegans Slo-1a it was 39.8 nM; in data set [2], less than 1 µg/mL; in data set [4], less than 0.1 µg/mL. This molecule returned a chromatographic logP in data set [3] of 5.02.

For the molecule `Cc1nn2c(C(C)C)c(C(=O)N[C@H]3CCc4ccccc43)cnc2c1-c1cc(F)cc(Cl)c1` [Example 324], the 50% effective concentration (EC50) in data set [1] is less than 0.1 µg/mL; on C. elegans Slo-1a, 31.6 nM; in data set [2] it was less than 0.1 µg/mL; in data set [4] it was less than 0.1 µg/mL. This molecule had a chromatographic logP in data set [3] of 5.49.

Consider `Cc1nn2c(C3CC3)c(C(=O)N[C@H]3CCc4ccccc43)cnc2c1-c1c(F)ccc(F)c1F` [Example 437], for which the EC50 is less than 0.1 µg/mL in data set [1], 1.58 nM at C. elegans Slo-1a, less than 0.1 µg/mL in data set [2] and less than 0.1 µg/mL in data set [4]. Besides, the chromatographic logP in data set [3] worked out at 3.83.

`COc1cccc(-c2c(C)nn3c(C(C)C)c(C(=O)N[C@H]4CCOc5ccccc54)cnc23)c1` [Example 395]: the concentration for a half-maximal effect (EC50) was less than 0.1 µg/mL in data set [1], 7.94 nM on C. elegans Slo-1a, less than 0.1 µg/mL in data set [2] and less than 0.1 µg/mL in data set [4]. Further, in data set [3], the chromatographic logP was determined as 4.24.

Turning to `Cc1nn2c(C(C)C)c(C(=O)N[C@H]3CCc4ccccc43)cnc2c1-c1c(F)cccc1F` [Example 99], the EC50 in data set [1] was less than 0.1 µg/mL; at C. elegans Slo-1a, 10 nM; in data set [2], less than 0.1 µg/mL; in data set [4], less than 0.1 µg/mL. Besides, the chromatographic logP in data set [3] amounted to 4.37.

As to `Cc1nn2c(C3CC3)c(C(=O)N[C@H]3CCc4ccccc43)cnc2c1-c1cccc(F)c1` [Example 353], the EC50 in data set [1] was less than 0.1 µg/mL; on C. elegans Slo-1a, 7.94 nM; in data set [2] it was less than 1 µg/mL; in data set [4] it was less than 0.1 µg/mL. Besides, the chromatographic logP in data set [3] is 3.95.

With `Cc1nn2c(C3CC3)c(C(=O)N[C@H]3CCOc4ccccc43)cnc2c1-c1cccc(F)c1F` [Example 457], the EC50 is less than 0.1 µg/mL in data set [1], 1.26 nM at C. elegans Slo-1a, less than 0.1 µg/mL in data set [2] and less than 0.1 µg/mL in data set [4]. In data set [3], this molecule showed a chromatographic logP of 3.61.

On to `Cc1nn2c(C(C)C)c(C(=O)N[C@H]3CCc4ccccc43)cnc2c1-c1cc(Cl)ccc1Cl` [Example 171], for which the EC50 was less than 0.1 µg/mL in data set [1], 5.01 nM on C. elegans Slo-1a, less than 0.1 µg/mL in data set [2] and less than 0.1 µg/mL in data set [4]. Moreover, the chromatographic logP in data set [3] is 5.31.

Take `COc1cccc(-c2c(C)nn3c(C(C)C)c(C(=O)N[C@H]4CCc5ccccc54)cnc23)c1` [Example 289]: the EC50 is less than 1 µg/mL in data set [1], 15.8 nM at C. elegans Slo-1a and less than 0.1 µg/mL in data set [4]. The molecule further registered a chromatographic logP in data set [3] of 4.51.

With `Cc1nn2c(C(C)C)c(C(=O)N[C@H]3CCCc4ccccc43)cnc2c1-c1cc(Cl)ccc1Cl` [Example 172], the EC50 in data set [1] is less than 0.1 µg/mL; on C. elegans Slo-1a, 10 nM; in data set [2], less than 0.1 µg/mL. For the same molecule, the chromatographic logP in data set [3] amounted to 5.64.

Regarding `Cc1nn2c(C3CC3)c(C(=O)N[C@H]3CCOc4ccccc43)cnc2c1-c1ccc(F)cc1` [Example 463], the EC50 in data set [1] is less than 0.1 µg/mL; on C. elegans Slo-1a, 7.94 nM; in data set [2], less than 0.1 µg/mL. This molecule registered a chromatographic logP in data set [3] of 3.62.

Regarding `Cc1nn2c(C(C)C)c(C(=O)N[C@H]3CCc4ccccc43)cnc2c1-c1cccc(Cl)c1` [Example 287], the EC50 is less than 1 µg/mL in data set [1], 15.8 nM at C. elegans Slo-1a and less than 0.1 µg/mL in data set [4]. For the same molecule, in data set [3], the chromatographic logP is 5.19.
